Test system: K24384-001-R-PDC complex spheroid growth
Assay: Anticancer human tumor K24384-001-R-PDC patient-derived pancreatic adenocarcinoma cell line growth inhibition [AhR]
Conditions: for IC50: curve of first compound; for viability, T/C: stronger effect = lower value
Outline: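 Complex tumor spheroids co-cultured with HUVEC and human MSC stroma; AhR antagonists tested in combination with standard-of-care and investigational agents. Top concentration at or near clinical Cmax (else 10 microM), half-log dilutions; growth expressed as percent test/control.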

[1] = second compound 0.1 µM, first compound 0.0316 µM
[2] = second compound 0.1 µM, first compound 0.1 µM
[3] = second compound 0.1 µM, first compound 0.316 µM
[4] = second compound 0.1 µM, first compound 1 µM
[5] = second compound 0.1 µM, first compound 3.16 µM
[6] = second compound 0.1 µM, first compound 10 µM
[7] = second compound 0.316 µM, first compound 0.0316 µM
[8] = second compound 0.316 µM, first compound 0.1 µM
[9] = second compound 0.316 µM, first compound 0.316 µM
[10] = second compound 0.316 µM, first compound 1 µM
[11] = second compound 0.316 µM, first compound 3.16 µM
[12] = second compound 0.316 µM, first compound 10 µM
[13] = second compound 1 µM, first compound 0.0316 µM
[14] = second compound 1 µM, first compound 0.1 µM
[15] = second compound 1 µM, first compound 0.316 µM
[16] = second compound 1 µM, first compound 1 µM
[17] = second compound 1 µM, first compound 3.16 µM
[18] = second compound 1 µM, first compound 10 µM
[19] = second compound 3.16 µM, first compound 0.0316 µM
[20] = second compound 3.16 µM, first compound 0.1 µM
[21] = second compound 3.16 µM, first compound 0.316 µM
[22] = second compound 3.16 µM, first compound 1 µM
[23] = second compound 3.16 µM, first compound 3.16 µM
[24] = second compound 3.16 µM, first compound 10 µM
[25] = second compound 10 µM, first compound 0.0316 µM
[26] = second compound 10 µM, first compound 0.1 µM
[27] = second compound 10 µM, first compound 0.316 µM
[28] = second compound 10 µM, first compound 1 µM
[29] = second compound 10 µM, first compound 3.16 µM
[30] = second compound 10 µM, first compound 10 µM
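Wherever viability, T/C is given: percent of DMSO vehicle-treated spheroid viability set as 100%.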

Compound | IC50 (second compound 0.1 µM) [µM] | IC50 (second compound 0.316 µM) [µM] | IC50 (second compound 1 µM) [µM] | IC50 (second compound 3.16 µM) [µM] | IC50 (second compound 10 µM) [µM] | viability, T/C [1] [%] | viability, T/C [2] [%] | viability, T/C [3] [%] | viability, T/C [4] [%] | viability, T/C [5] [%] | viability, T/C [6] [%] | viability, T/C [7] [%] | viability, T/C [8] [%] | viability, T/C [9] [%] | viability, T/C [13] [%] | viability, T/C [14] [%] | viability, T/C [19] [%] | viability, T/C [20] [%] | viability, T/C [25] [%] | viability, T/C [26] [%] | further results
COc1cc(Nc2ncc3c(n2)-c2ccc(Cl)cc2C(c2c(F)cccc2OC)=NC3)ccc1C(=O)O + Cc1ccccc1N=Nc1ccc(NC(=O)c2ccnn2C)c(C)c1 | > 10 | > 10 | > 10 | 3.16 | > 10 | 87.8 | 71.2 | 76 | 48.9 | 49.6 | 51.5 | 79.8 | 68.1 | 68.7 | 79.5 | 69.3 | 64.7 | 64.5 | 90.6 | 84.8 | viability, T/C [10]: 60.6%; viability, T/C [11]: 52.6%; viability, T/C [12]: 54.1%; viability, T/C [15]: 60.6%; viability, T/C [16]: 48.7%; viability, T/C [17]: 52.6%; viability, T/C [18]: 60.1%; viability, T/C [21]: 69.2%; viability, T/C [22]: 49.2%; viability, T/C [23]: 54.9%; viability, T/C [24]: 57.3%; viability, T/C [27]: 85.5%; viability, T/C [28]: 74.2%; viability, T/C [29]: 75.4%; viability, T/C [30]: 70.3%
Cn1ncnc1C1c2n[nH]c(=O)c3cc(F)cc(c23)NC1c1ccc(F)cc1 (stereo not given) + Cc1ccccc1N=Nc1ccc(NC(=O)c2ccnn2C)c(C)c1 | > 0.1 | > 0.1 | > 0.1 | > 0.1 | > 0.1 | 79 | 96.7 | – | – | – | – | 67.1 | 73.5 | – | 66.3 | 66 | 65.6 | 62.8 | 82.3 | 66.2 | viability, T/C (second compound 0.1 µM, first compound 0.000316 µM): 100%; viability, T/C (second compound 0.1 µM, first compound 0.001 µM): 110%; viability, T/C (second compound 0.1 µM, first compound 0.00316 µM): 110%; viability, T/C (second compound 0.1 µM, first compound 0.01 µM): 98.2%; viability, T/C (second compound 0.316 µM, first compound 0.000316 µM): 104%; viability, T/C (second compound 0.316 µM, first compound 0.001 µM): 112%; viability, T/C (second compound 0.316 µM, first compound 0.00316 µM): 75.8%; viability, T/C (second compound 0.316 µM, first compound 0.01 µM): 74.3%; viability, T/C (second compound 1 µM, first compound 0.000316 µM): 98.2%; viability, T/C (second compound 1 µM, first compound 0.001 µM): 84.3%; viability, T/C (second compound 1 µM, first compound 0.00316 µM): 73.3%; viability, T/C (second compound 1 µM, first compound 0.01 µM): 72.8%; viability, T/C (second compound 3.16 µM, first compound 0.000316 µM): 86.9%; viability, T/C (second compound 3.16 µM, first compound 0.001 µM): 87.8%; viability, T/C (second compound 3.16 µM, first compound 0.00316 µM): 87.6%; viability, T/C (second compound 3.16 µM, first compound 0.01 µM): 67.4%; viability, T/C (second compound 10 µM, first compound 0.000316 µM): 91.8%; viability, T/C (second compound 10 µM, first compound 0.001 µM): 84%; viability, T/C (second compound 10 µM, first compound 0.00316 µM): 102%; viability, T/C (second compound 10 µM, first compound 0.01 µM): 86%
NS(=O)(=O)OCC1CC(n2ccc3c(NC4CCc5ccccc54)ncnc32)CC1O (stereo not given) + Cc1ccccc1N=Nc1ccc(NC(=O)c2ccnn2C)c(C)c1 | 0.932 | 0.928 | 0.732 | 0.432 | 0.427 | 104 | 117 | 96.4 | 47.4 | 23.7 | 22.1 | 104 | 115 | 98.8 | 117 | 127 | 103 | 108 | 96.2 | 104 | viability, T/C [10]: 46.1%; viability, T/C [11]: 27.3%; viability, T/C [12]: 18.3%; viability, T/C [15]: 83.5%; viability, T/C [16]: 39.5%; viability, T/C [17]: 24.2%; viability, T/C [18]: 22.6%; viability, T/C [21]: 58.3%; viability, T/C [22]: 32.7%; viability, T/C [23]: 24.6%; viability, T/C [24]: 20.9%; viability, T/C [27]: 59%; viability, T/C [28]: 30.1%; viability, T/C [29]: 23.4%; viability, T/C [30]: 20.3%
O=C(C=Cc1cccc(S(=O)(=O)Nc2ccccc2)c1)NO + Cc1ccccc1N=Nc1ccc(NC(=O)c2ccnn2C)c(C)c1 | 2.35 | 2.44 | 2.26 | 2.27 | 2.56 | 137 | 128 | 126 | 92.2 | 35.2 | 6.57 | 135 | 144 | 121 | 136 | 135 | 102 | 127 | 128 | 128 | viability, T/C [10]: 107%; viability, T/C [11]: 32.6%; viability, T/C [12]: 6.91%; viability, T/C [15]: 126%; viability, T/C [16]: 87%; viability, T/C [17]: 35.1%; viability, T/C [18]: 6.47%; viability, T/C [21]: 123%; viability, T/C [22]: 86.5%; viability, T/C [23]: 35.9%; viability, T/C [24]: 5.9%; viability, T/C [27]: 115%; viability, T/C [28]: 89%; viability, T/C [29]: 41.1%; viability, T/C [30]: 7.02%
